Test results: ChEMBL document CHEMBL4715726, “Identification, characterization, kinetics, and molecular docking of flavonoid constituents from Archidendron clypearia (Jack.) Nielsen leaves and twigs” (Bioorg Med Chem, 2016)

Experiments:
[1] = biological target: T1, Bifunctional epoxide hydrolase 2 (Homo sapiens, UniProt P34913); assay: Mixed type inhibition of sEH (unknown origin) using varying levels of PHOME as substrate by Dixon plot analysis
T1 sequence (P34913 whole entry): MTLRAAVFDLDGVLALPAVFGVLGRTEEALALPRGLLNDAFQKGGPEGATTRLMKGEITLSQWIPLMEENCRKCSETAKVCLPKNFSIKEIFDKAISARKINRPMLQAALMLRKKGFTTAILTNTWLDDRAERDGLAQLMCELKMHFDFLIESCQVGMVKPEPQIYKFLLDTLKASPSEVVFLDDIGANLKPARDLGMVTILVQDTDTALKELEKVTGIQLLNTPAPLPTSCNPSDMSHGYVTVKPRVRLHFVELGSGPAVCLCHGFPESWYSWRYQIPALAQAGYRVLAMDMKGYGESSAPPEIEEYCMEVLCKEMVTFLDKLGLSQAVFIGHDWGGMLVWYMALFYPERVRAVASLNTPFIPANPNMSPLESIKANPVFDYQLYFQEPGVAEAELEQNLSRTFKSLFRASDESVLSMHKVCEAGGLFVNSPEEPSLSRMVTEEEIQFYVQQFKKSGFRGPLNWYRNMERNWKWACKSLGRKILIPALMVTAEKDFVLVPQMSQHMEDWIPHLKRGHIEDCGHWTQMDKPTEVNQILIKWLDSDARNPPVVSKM

[2] = biological target: T1, Bifunctional epoxide hydrolase 2; assay: Inhibition of sEH (unknown origin) assessed as reduction in 6-methoxy-2-naphthaldehyde formation using PHOME as substrate measured after 40 mins by fluorescence photometry analysis
[3] = biological target: T2, Bifunctional epoxide hydrolase 2 (Homo sapiens) (UniProt P34913); assay: Inhibition of sEH (unknown origin) assessed as reduction in 6-methoxy-2-naphthaldehyde formation at 100 uM using PHOME as substrate measured after 40 mins by fluorescence photometry analysis relative to control
T2 sequence (whole entry): T1 sequence (P34913 whole entry)

[4] = biological target: T1, Bifunctional epoxide hydrolase 2; assay: Competitive inhibition of sEH (unknown origin) using varying levels of PHOME as substrate by Dixon plot analysis
[5] = biological target: T1, Bifunctional epoxide hydrolase 2; assay: Non competitive inhibition of sEH (unknown origin) using varying levels of PHOME as substrate by Dixon plot analysis
[6] = biological target: T2, Bifunctional epoxide hydrolase 2 (Homo sapiens); conditions: dose 25.0 nM, time 40.0 min

IC50 [2] [µM]	inhibition [3] [%]	Structure (SMILES)	further results
30.1	86.5	COc1cc(-c2oc3cc(O)cc(O)c3c(=O)c2O[C@@H]2O[C@H](CO)[C@@H](O)[C@H](O)[C@H]2O)ccc1O	Ki [1]: 29.7 µM
10	90.8	O=C(Oc1cc(O)c2c(c1)O[C@H](c1cc(O)c(O)c(O)c1)CC2)c1cc(O)c(O)c(O)c1	Ki [1]: 45.5 µM
17.5	98.5	COc1cc(O)c2c(=O)cc(-c3ccc(O[C@@H]4O[C@H](CO)[C@@H](O)[C@H](O)[C@H]4O)c(OC)c3)oc2c1	Ki [1]: 37.1 µM
19.8	95.8	COc1cc(O)c2c(=O)c(O[C@@H]3O[C@H](CO)[C@@H](O)[C@H](O)[C@H]3O)c(-c3ccc(O[C@@H]4O[C@H](CO)[C@@H](O)[C@H](O)[C@H]4O)c(OC)c3)oc2c1	Ki [4]: 24.6 µM
	33.9	COc1cc([C@@H](O)CC(=O)c2c(O)cc(O[C@@H]3O[C@H](CO)[C@@H](O)[C@H](O)[C@H]3O)cc2O)ccc1O	
	66.1	COc1cc(O)c2c(=O)cc(-c3ccc(O[C@@H]4O[C@H](CO)[C@@H](O)[C@H](O)[C@H]4O[C@@H]4OC[C@](O)(CO)[C@H]4O)c(OC)c3)oc2c1	
	64.1	COc1cc(O)c2c(=O)c(O)c(-c3ccc(O[C@@H]4O[C@H](CO)[C@@H](O)[C@H](O)[C@H]4O[C@@H]4OC[C@](O)(CO)[C@H]4O)c(OC)c3)oc2c1	
	53.5	COc1cc(O)c2c(c1)O[C@H](c1cc(O)c(O[C@@H]3O[C@H](CO)[C@@H](O)[C@H](O)[C@H]3O[C@@H]3OC[C@](O)(CO)[C@H]3O)c(OC)c1)CC2=O	
	56.3	COc1cc(O)c(C(=O)/C=C/c2ccc(O)c(OC)c2)c(O[C@@H]2O[C@H](CO)[C@@H](O)[C@H](O)[C@H]2O)c1	
12	90.8	COc1cc(O)c2c(=O)c(OC)c(-c3ccc(O[C@@H]4O[C@H](CO)[C@@H](O)[C@H](O)[C@H]4O[C@@H]4OC[C@](O)(CO)[C@H]4O)c(OC)c3)oc2c1	Ki [5]: 18.2 µM
11.5	91.2	O=C(Oc1c(-c2ccc(O)c(O)c2)oc2cc(O)cc(O)c2c1=O)c1cc(O)c(O)c(O)c1	Ki [5]: 21.5 µM
	50.9	COc1cc([C@@H](O)CC(=O)c2c(O)cc(O[C@@H]3O[C@H](CO)[C@@H](O)[C@H](O)[C@H]3O[C@@H]3OC[C@](O)(CO)[C@H]3O)cc2O)ccc1O	
		CCCCOC(=O)CCCCCCCCCCCNC(=O)NC12CC3CC(CC(C3)C1)C2	inhibition [6]: 58.9%

Structure (SMILES)	IC50 [2] [µM]	inhibition [3] [%]	further results
C[C@@H]1O[C@@H](Oc2c(-c3ccc(O)c(O)c3)oc3cc(O)cc(O)c3c2=O)[C@H](O)[C@H](O)[C@H]1O [QUERCITRIN]	11.8	78.5	Ki [5]: 39.6 µM
